Source: patent US12146874B2, “Microtentacle imaging in patient tumor samples” (University of Maryland, Baltimore, priority 2014, dated 2024)

Columns and labels:
patient-derived cells = assay: McTN and stem cell responses of patient-derived cells to drugs (Example 4); assay type: cell-based, human; conditions: concentration listed in Table 2, 30 minutes, vs vehicle 0.1% DMSO
Procedure: Patient-derived cells are treated with either vehicle (0.1% DMSO) or each of the drugs in Table 2 at the indicated concentration for 30 minutes and then analyzed for McTN incidence.

MDA-436 cells = assay: Automated McTN analysis by confocal microscopy; assay type: cell-based; conditions: at least 10 random cells
Description: FIG. 24. Automated McTN analysis. […] A gradient vector flow snake algorithm was used to define the cell edges and a local curvature maxima effectively identified McTN ends (yellow diamonds). […] This automated cell shape analysis will also enable calculations of average McTN length, curvature, etc. that will yield more multi-dimensional data for McTN studies.

[1] = tested on: fresh patient tumor cells and tumorgrafts; assay: McTN drug response of fresh patient samples and tumorgrafts in the microfluidic device (Aim 3b); conditions: concentration listed in Table 4, 60 minutes, media exchange in microfluidic channels
Procedure: An automated microscope stage will collect images from each channel every 5 minutes across the one hour drug treatment.
Strategy and Analysis: The device prioritized from subaim 2a will be used to analyze fresh patient samples as well as the resulting tumorgrafts from 40 patients during the three years of the project. McTN images collected from each cell sample will be analyzed with a custom MatLab algorithm developed for this assay that can automatically identify McTNs but also score metrics that were previously not possible to measure, such as the average number of McTNs per cell (FIG. 12). […] Drugs will be added by media exchange across the six microfluidic channels at the concentrations listed in Table 4 for 60 minutes, which each affect McTNs in 1 hr.

[2] = tested on: nonmetastatic SkBr3 cells; assay: McTN scoring in detached SkBr3 cells, confocal microscopy for tubulin localization; assay type: cell-based, Human; conditions: Jas 500 nM, Taxol 1.2 μM, McTNs scored blindly, 3 expts
Description: FIG. 4. Targeting cell division can increase McTNs. […] (Bars=mean+S.D from 3 expts. with McTNs scored blindly).
Genetic alterations and chemotherapies that stabilize tubulin can increase McTNs. Actin-disrupting drugs, such as jasplakinolide (Jas) are currently being developed as therapies to reduce tumor cell division and migration (Takeuchi H, Ara G, Sausville E A, Teicher B (1998). Jasplakinolide: interaction with radiation and hyperthermia in human prostate carcinoma and Lewis lung carcinoma. Cancer chemotherapy and pharmacology 42: 491-496). […] Dissemination and growth of cancer cells in metastatic sites. […] We have published that genetic alterations which promote McTNs (FIG. 2B) increase CTC lung retention in living mice (Balzer E M, Whipple R A, Thompson K, Boggs A E, Slovic J, Cho E H et al (2010). c-Src differentially regulates the functions of microtentacles and invadopodia. Oncogene 29: 6402-6408; Matrone M A, Whipple R A, Thompson K, Cho E H, Vitolo M I, Balzer E M et al (2010). Metastatic breast tumors express increased tau, which promotes microtentacle formation and the reattachment of detached breast tumor cells. Oncogene 29: 3217-3227).

Compound | Predicted stemness & McTN effect (patient-derived cells) | Predicted stemness & McTN effect [1] | also measured
C[C@@H](N)[C@H]1CC[C@H](C(=O)Nc2ccncc2)CC1 [Y-27632] | Increase |  | 
COc1cc2c(c(OC)c1OC)-c1ccc(OC)c(=O)cc1[C@@H](NC(C)=O)CC2 [Colchicine] | Decrease | Decrease | average number of McTNs per cell (MDA-436 cells; colchicine 50 μM vs vehicle 0.1% DMSO): significantly reduces the average number of McTNs per cell
CN(C)S(=O)(=O)c1ccc2c(c1)/C(=C/c1cc3c([nH]1)CCCC3)C(=O)N2 [SU6656] | Increase |  | 
COc1cc(/C=C/C(=O)CC(=O)/C=C/c2ccc(O)c(OC)c2)ccc1O [Curcumin] |  | Decrease | 
C/C(=C\c1csc(C)n1)[C@@H]1C[C@@H]2O[C@]2(C)CCC[C@H](C)[C@H](O)[C@@H](C)C(=O)C(C)(C)[C@@H](O)CC(=O)N1 [Ixabepilone] | Increase | Increase | 
CC(=O)O[C@@]12CO[C@@H]1C[C@H](O)[C@@]1(C)C(=O)[C@H](O)C3=C(C)[C@@H](OC(=O)[C@H](O)[C@@H](NC(=O)OC(C)(C)C)c4ccccc4)C[C@@](O)([C@@H](OC(=O)c4ccccc4)[C@H]21)C3(C)C [Docetaxel] | Increase |  | 
CC(=O)O[C@H]1C(=O)[C@@]2(C)[C@H]([C@H](OC(=O)c3ccccc3)[C@]3(O)C[C@H](OC(=O)[C@H](O)[C@@H](NC(=O)c4ccccc4)c4ccccc4)C(C)=C1C3(C)C)[C@]1(OC(C)=O)CO[C@@H]1C[C@@H]2O [Paclitaxel] | Increase | Increase | levels of McTNs [2]: strongly promote McTNs; levels of McTNs ([2]; listed as Paclitaxel-Taxol): increases levels of McTNs dramatically; average number of McTNs per cell (MDA-436 cells; paclitaxel 1 μM vs vehicle 0.1% DMSO): increases McTNs, but this does not reach significance
O=S(=O)(c1cccc2cnccc12)N1CCCNCC1 [Fasudil] | Increase |  | 
C/C1=C\[C@H](C)C[C@H](C)OC(=O)C[C@H](c2ccc(O)cc2)NC(=O)[C@@H](Cc2c(Br)[nH]c3ccccc23)N(C)C(=O)[C@H](C)NC(=O)[C@@H](C)C1 [Jazplakinolide, Jasplakinolide] | Decrease |  | levels of McTNs [2]: strongly promote McTNs; levels of McTNs ([2]; listed as Jas): increases levels of McTNs dramatically
O=S(=O)(c1cccc2c(I)cccc12)N1CCCNCC1 [ML-7] | Decrease |  | 
CC[C@]1(O)C[C@@H]2CN(CCc3c([nH]c4ccccc34)[C@@](C(=O)OC)(c3cc4c(cc3OC)N(C)[C@H]3[C@@](O)(C(=O)OC)[C@H](OC(C)=O)[C@]5(CC)C=CCN6CC[C@]43[C@@H]65)C2)C1 [Vinblastine] | Decrease | Decrease | 
C=C1C(=O)O[C@@H]2/C=C(\C)CC/C=C(\C)CC[C@@H]12 [Costunolide] | Decrease |  | 
